From ChEMBL document CHEMBL1201862, “PubChem BioAssay data set” (2004)
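Five concentrations, 48 hours, 96-well plates. Here, GI50 denotes the concentration required for 50% inhibition of growth.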 The source made the active and inactive calls. Rule as the data show it: active = GI50 up to about 1.1 µM and inactive = higher.

Assays:
Assay in all cases: NCI tumour cell line growth inhibition, 48 h
HCC 2998 = tested on: HCC 2998
SF-268 = tested on: SF-268
DU-145 = tested on: DU-145
Hs-578T = tested on: Hs-578T
MCF7 = tested on: MCF7
K562 = tested on: K562
SNB-19 = tested on: SNB-19
HCT-116 = tested on: HCT-116
MOLT-4 = tested on: MOLT-4
SNB-75 = tested on: SNB-75
HOP-92 = tested on: HOP-92
LOX IMVI = tested on: LOX IMVI
OVCAR-3 = tested on: OVCAR-3
M14 = tested on: M14
CCRF-CEM = tested on: CCRF-CEM
786-0 = tested on: 786-0
SF-295 = tested on: SF-295
ACHN = tested on: ACHN
OVCAR-5 = tested on: OVCAR-5
PC-3 = tested on: PC-3

Compound	GI50 (HCC 2998)	GI50 (SF-268)	GI50 (DU-145)	GI50 (Hs-578T)	GI50 (MCF7)	GI50 (K562)	GI50 (SNB-19)	GI50 (HCT-116)	GI50 (MOLT-4)	GI50 (SNB-75)	GI50 (HOP-92)	GI50 (LOX IMVI)	GI50 (OVCAR-3)	GI50 (M14)	GI50 (CCRF-CEM)	GI50 (786-0)	GI50 (SF-295)	GI50 (ACHN)	GI50 (OVCAR-5)	GI50 (PC-3)
CC(C)=C1CCC(CN2CCOCC2)C1=O (stereo not given)	15.4 µM (inactive)	15.2 µM (inactive)	16.4 µM (inactive)	28.2 µM (inactive)	4.14 µM (inactive)	1.72 µM (inactive)	60.5 µM (inactive)	4.43 µM (inactive)	2.34 µM (inactive)	4.72 µM (inactive)	3.95 µM (inactive)	19.9 µM (inactive)	8.18 µM (inactive)	3.52 µM (inactive)	2.49 µM (inactive)	3.79 µM (inactive)	98.4 µM (inactive)	9.84 µM (inactive)	18.2 µM (inactive)	17.5 µM (inactive)
O=C(NCCc1ccccn1)c1ccc2cc(C(=O)N3CC(CCl)c4ccc([N+](=O)[O-])cc43)[nH]c2c1 (stereo not given)	61.5 µM (inactive)	7.1 µM (inactive)	> 52.4 µM (inactive)	94.6 µM (inactive)	> 67.9 µM (inactive)	> 100 µM (inactive)	12.1 µM (inactive)	> 70.3 µM (inactive)	> 100 µM (inactive)	18.8 µM (inactive)	9.46 µM (inactive)	> 100 µM (inactive)	5.52 µM (inactive)	> 100 µM (inactive)	> 100 µM (inactive)	9.64 µM (inactive)	> 35.3 µM (inactive)	36.6 µM (inactive)	97.9 µM (inactive)	44.6 µM (inactive)
O=[N+]([O-])c1ccc2ncccc2c1CCc1c([N+](=O)[O-])ccc2ncccc12	> 100 µM (inactive)	> 100 µM (inactive)	> 100 µM (inactive)	> 100 µM (inactive)	> 100 µM (inactive)	> 100 µM (inactive)	> 100 µM (inactive)	> 100 µM (inactive)	> 100 µM (inactive)	> 100 µM (inactive)	> 35.3 µM (inactive)	> 100 µM (inactive)	> 100 µM (inactive)	> 100 µM (inactive)	> 100 µM (inactive)	> 100 µM (inactive)	> 100 µM (inactive)	> 100 µM (inactive)	> 100 µM (inactive)	> 100 µM (inactive)
CC(C)C(NCc1c(O)ccc2c(-c3ccccc3)cc(=O)oc12)C(=O)O (stereo not given)	> 100 µM (inactive)	> 100 µM (inactive)	> 100 µM (inactive)	> 100 µM (inactive)	> 100 µM (inactive)	> 100 µM (inactive)	> 100 µM (inactive)	> 100 µM (inactive)	> 100 µM (inactive)	83.9 µM (inactive)	> 100 µM (inactive)	> 100 µM (inactive)	> 100 µM (inactive)	> 100 µM (inactive)	> 100 µM (inactive)	> 100 µM (inactive)	> 100 µM (inactive)	> 100 µM (inactive)	> 100 µM (inactive)	> 100 µM (inactive)
Cc1cc(N)c2ccccc2[n+]1CCCCCCCCCC[n+]1c(C)cc(N)c2ccccc21 [DEQUALINIUM CHLORIDE]	0.904 µM (active)	1.39 µM (inactive)	2.74 µM (inactive)	1.96 µM (inactive)	0.423 µM (active)	0.379 µM (active)	0.783 µM (active)	1.31 µM (inactive)	0.964 µM (active)	0.986 µM (active)	3.62 µM (inactive)	1.11 µM (active)	2.27 µM (inactive)	2.59 µM (inactive)	2.11 µM (inactive)	2.69 µM (inactive)	1.28 µM (inactive)	1.11 µM (active)	2.34 µM (inactive)	1.07 µM (active)
